Calls of active or inactive are those of the source. No cut-off for these calls is given here.
Columns and labels:
[1] = tested on: PC-3; assay: Cytotoxicity against human PC-3 cells assessed as reduction in cell viability after 96 hrs by MTT assay; type: functional, cell-based; settings: PC-3, 96 h
[2] = tested on: HL-60; assay: Antiproliferative activity against human HL-60 cells assessed as cell growth inhibition after 72 hrs by trypan blue staining based cell counting assay; type: functional; settings: HL-60, 72 h
[3] = tested on: HL-60; assay: Induction of apoptosis in human HL-60 cells assessed as increase in accumulation at sub-G1 phase at 0.5 uM after 24 hrs by propidium iodide staining based flow cytometry (reference value: 2.72 %); type: functional
[4] = tested on: HL-60; assay: Induction of apoptosis in human HL-60 cells assessed as increase in accumulation at sub-G1 phase at 1 uM after 24 hrs by propidium iodide staining based flow cytometry (reference value: 2.72 %); type: functional
[5] = tested on: HL-60; assay: Induction of apoptosis in human HL-60 cells assessed as increase in accumulation at sub-G1 phase at 2 uM after 24 hrs by propidium iodide staining based flow cytometry (reference value: 2.72 %); type: functional
[6] = tested on: HL-60; assay: Induction of apoptosis in human HL-60 cells assessed as live cells at 0.5 uM measured after 24 hrs by Annexin-V/FITC and propidium iodide staining based flow cytometry (reference value: 89.29 %); type: functional
[7] = tested on: HL-60; assay: Induction of apoptosis in human HL-60 cells assessed as early apoptotic cells at 0.5 uM measured after 24 hrs by Annexin-V/FITC and propidium iodide staining based flow cytometry (reference value: 2.46 %); type: functional
[8] = tested on: HL-60; assay: Induction of apoptosis in human HL-60 cells assessed as late apoptotic cells at 0.5 uM measured after 24 hrs by Annexin-V/FITC and propidium iodide staining based flow cytometry (reference value: 7.24 %); type: functional
[9] = tested on: HL-60; assay: Induction of apoptosis in human HL-60 cells assessed as necrotic cells at 0.5 uM measured after 24 hrs by Annexin-V/FITC and propidium iodide staining based flow cytometry (reference value: 1.01 %); type: functional
[10] = tested on: HL-60; assay: Induction of apoptosis in human HL-60 cells assessed as live cells at 1 uM measured after 24 hrs by Annexin-V/FITC and propidium iodide staining based flow cytometry (reference value: 89.29 %); type: functional
[11] = tested on: HL-60; assay: Induction of apoptosis in human HL-60 cells assessed as early apoptotic cells at 1 uM measured after 24 hrs by Annexin-V/FITC and propidium iodide staining based flow cytometry (reference value: 2.46 %); type: functional
[12] = tested on: HL-60; assay: Induction of apoptosis in human HL-60 cells assessed as late apoptotic cells at 1 uM measured after 24 hrs by Annexin-V/FITC and propidium iodide staining based flow cytometry (reference value: 7.24 %); type: functional
[13] = tested on: HL-60; assay: Induction of apoptosis in human HL-60 cells assessed as necrotic cells at 1 uM measured after 24 hrs by Annexin-V/FITC and propidium iodide staining based flow cytometry (reference value: 1.01 %); type: functional
[14] = tested on: HL-60; assay: Induction of apoptosis in human HL-60 cells assessed as live cells at 2 uM measured after 24 hrs by Annexin-V/FITC and propidium iodide staining based flow cytometry (reference value: 89.29 %); type: functional
[15] = tested on: HL-60; assay: Induction of apoptosis in human HL-60 cells assessed as early apoptotic cells at 2 uM measured after 24 hrs by Annexin-V/FITC and propidium iodide staining based flow cytometry (reference value: 2.46 %); type: functional
[16] = tested on: HL-60; assay: Induction of apoptosis in human HL-60 cells assessed as late apoptotic cells at 2 uM measured after 24 hrs by Annexin-V/FITC and propidium iodide staining based flow cytometry (reference value: 7.24 %); type: functional
[17] = tested on: HL-60; assay: Induction of apoptosis in human HL-60 cells assessed as necrotic cells at 2 uM measured after 24 hrs by Annexin-V/FITC and propidium iodide staining based flow cytometry (reference value: 1.01 %); type: functional
[18] = tested on: HL-60; assay: Upregulation of acetylated H3 level in human HL-60 cells at 2 uM measured after 12 hrs by Western blot analysis; type: functional, cell-based
[19] = tested on: HL-60; assay: Upregulation of acetylated alpha-tubulin level in human HL-60 cells at 2 uM measured after 12 hrs by Western blot analysis; type: functional, cell-based

SMILES	IC50 [2]	IC50 [1]	other results
CC1(C)[C@@H](O)CC[C@]2(C)[C@H]3C(=O)C=C4[C@@H]5C[C@@](C)(C(=O)OCCOc6ccc(NC(=O)CCCCCC(=O)NO)cc6)CC[C@]5(C)CC[C@@]4(C)[C@]3(C)CC[C@@H]12	2.83 µM	3.68 µM	
CC1(C)[C@@H](O)CC[C@]2(C)[C@H]3C(=O)C=C4[C@@H]5C[C@@](C)(C(=O)NCCCCCC(=O)NO)CC[C@]5(C)CC[C@@]4(C)[C@]3(C)CC[C@@H]12	8.78 µM	13.6 µM	
CC1(C)[C@@H](O)CC[C@]2(C)[C@H]3C(=O)C=C4[C@@H]5C[C@@](C)(C(=O)OCCCOc6ccc(NC(=O)CCCCCCC(=O)NO)cc6)CC[C@]5(C)CC[C@@]4(C)[C@]3(C)CC[C@@H]12	2.77 µM	5.37 µM	
CC1(C)[C@@H](O)CC[C@]2(C)[C@H]3C(=O)C=C4[C@@H]5C[C@@](C)(C(=O)N6CCN(c7ccc(NC(=O)CCCC(=O)NO)cc7)CC6)CC[C@]5(C)CC[C@@]4(C)[C@]3(C)CC[C@@H]12	4.79 µM	11.8 µM	
CC1(C)[C@@H](O)CC[C@]2(C)[C@H]3C(=O)C=C4[C@@H]5C[C@@](C)(C(=O)OCCOc6ccc(NC(=O)CCCCCCC(=O)NO)cc6)CC[C@]5(C)CC[C@@]4(C)[C@]3(C)CC[C@@H]12	4.42 µM	8.43 µM	
CC1(C)[C@@H](O)CC[C@]2(C)[C@H]3C(=O)C=C4[C@@H]5C[C@@](C)(C(=O)N6CCN(c7ccc(NC(=O)CCCCCC(=O)NO)cc7)CC6)CC[C@]5(C)CC[C@@]4(C)[C@]3(C)CC[C@@H]12	1.79 µM	3.09 µM	
CC1(C)[C@@H](O)CC[C@]2(C)[C@H]3C(=O)C=C4[C@@H]5C[C@@](C)(C(=O)O)CC[C@]5(C)CC[C@@]4(C)[C@]3(C)CC[C@@H]12 [ENOXOLONE]	55.3 µM	105 µM	
O=C(CCCCCCC(=O)Nc1ccccc1)NO [VORINOSTAT]			Activity [3]: 2.07%; Activity [4]: 5.34%; Activity [5]: 43.31%; Activity [6]: 86.69%; Activity [7]: 2.41%; Activity [8]: 8.95%; Activity [9]: 1.94%; Activity [10]: 82.27%; Activity [11]: 2.42%; Activity [12]: 12.96%; Activity [13]: 2.36%; Activity [14]: 49.4%; Activity [15]: 5.02%; Activity [16]: 39.71%; Activity [17]: 5.87%; Activity [18]: Active; Activity [19]: Active
CC1(C)[C@@H](O)CC[C@]2(C)[C@H]3C(=O)C=C4[C@@H]5C[C@@](C)(C(=O)NCCCCC(=O)NO)CC[C@]5(C)CC[C@@]4(C)[C@]3(C)CC[C@@H]12	15.5 µM	18.5 µM	
CC1(C)[C@@H](O)CC[C@]2(C)[C@H]3C(=O)C=C4[C@@H]5C[C@@](C)(C(=O)NCCCC(=O)NO)CC[C@]5(C)CC[C@@]4(C)[C@]3(C)CC[C@@H]12	21.6 µM	25.1 µM	
CC1(C)[C@@H](O)CC[C@]2(C)[C@H]3C(=O)C=C4[C@@H]5C[C@@](C)(C(=O)OCCOc6ccc(NC(=O)CCCCC(=O)NO)cc6)CC[C@]5(C)CC[C@@]4(C)[C@]3(C)CC[C@@H]12	2.08 µM	8.22 µM	
CC1(C)[C@@H](O)CC[C@]2(C)[C@H]3C(=O)C=C4[C@@H]5C[C@@](C)(C(=O)NCCCCCCC(=O)NO)CC[C@]5(C)CC[C@@]4(C)[C@]3(C)CC[C@@H]12	9.53 µM	11.8 µM	
CC1(C)[C@@H](O)CC[C@]2(C)[C@H]3C(=O)C=C4[C@@H]5C[C@@](C)(C(=O)N6CCN(c7ccc(NC(=O)CCCCC(=O)NO)cc7)CC6)CC[C@]5(C)CC[C@@]4(C)[C@]3(C)CC[C@@H]12	3.35 µM	5.53 µM	

Second part, led by results:

IC50 [2]	SMILES	IC50 [1]	other results
0.72 µM	CC1(C)[C@@H](O)CC[C@]2(C)[C@H]3C(=O)C=C4[C@@H]5C[C@@](C)(C(=O)N6CCN(c7ccc(NC(=O)CCCCCCC(=O)NO)cc7)CC6)CC[C@]5(C)CC[C@@]4(C)[C@]3(C)CC[C@@H]12	2.48 µM	
1.53 µM	CC1(C)[C@@H](O)CC[C@]2(C)[C@H]3C(=O)C=C4[C@@H]5C[C@@](C)(C(=O)OCCOc6ccc(NC(=O)CCCC(=O)NO)cc6)CC[C@]5(C)CC[C@@]4(C)[C@]3(C)CC[C@@H]12	6.94 µM	
1.34 µM	CC1(C)[C@@H](O)CC[C@]2(C)[C@H]3C(=O)C=C4[C@@H]5C[C@@](C)(C(=O)OCCCOc6ccc(NC(=O)CCCC(=O)NO)cc6)CC[C@]5(C)CC[C@@]4(C)[C@]3(C)CC[C@@H]12	4.43 µM	
1.35 µM	COC(=O)[C@@]1(C)CC[C@]2(C)CC[C@]3(C)C(=CC(=O)[C@@H]4[C@@]5(C)C=C(C#N)C(=O)C(C)(C)[C@@H]5CC[C@]43C)[C@@H]2C1	1.68 µM	Activity [3]: 2.91%; Activity [4]: 3.57%; Activity [5]: 19.18%; Activity [6]: 87.34%; Activity [7]: 1.77%; Activity [8]: 9%; Activity [9]: 1.89%; Activity [10]: 81.11%; Activity [11]: 3.27%; Activity [12]: 13.31%; Activity [13]: 2.31%; Activity [14]: 77.42%; Activity [15]: 2.52%; Activity [16]: 16.96%; Activity [17]: 3.1%; Activity [18]: inactive
1.42 µM	CC1(C)[C@@H](O)CC[C@]2(C)[C@H]3C(=O)C=C4[C@@H]5C[C@@](C)(C(=O)OCCCOc6ccc(NC(=O)CCCCC(=O)NO)cc6)CC[C@]5(C)CC[C@@]4(C)[C@]3(C)CC[C@@H]12	3.95 µM	
1.62 µM	CC1(C)[C@@H](O)CC[C@]2(C)[C@H]3C(=O)C=C4[C@@H]5C[C@@](C)(C(=O)OCCCOc6ccc(NC(=O)CCCCCC(=O)NO)cc6)CC[C@]5(C)CC[C@@]4(C)[C@]3(C)CC[C@@H]12	4.31 µM	
